target: Mitogen-activated protein kinase 1 (Homo sapiens, UniProt P28482)

Row | Structure (SMILES) | Kd
1 | COCC(=O)NC/C=C/c1ccc2ncnc(Nc3ccc(Oc4ccc(C)nc4)c(C)c3)c2c1 [CP-724714] | > 10 µM
2 | NC(=O)c1ccc(-c2nc(-c3ccc4c(c3)OCO4)c(-c3ccccn3)[nH]2)cc1 [SB-431542] | > 10 µM

target: Casein kinase I isoform delta (Homo sapiens, UniProt P48730)

Row | Structure (SMILES) | Kd
3 | Nc1nc(Nc2ccc(S(N)(=O)=O)cc2)nn1C(=O)c1c(F)cccc1F [JNJ-7706621] | > 10 µM
4 | COCC(=O)NC/C=C/c1ccc2ncnc(Nc3ccc(Oc4ccc(C)nc4)c(C)c3)c2c1 [CP-724714] | > 10 µM

target: Receptor-type tyrosine-protein kinase FLT3 (Homo sapiens, UniProt P36888, D835Y)

Row | Structure (SMILES) | Kd
5 | COCC(=O)NC/C=C/c1ccc2ncnc(Nc3ccc(Oc4ccc(C)nc4)c(C)c3)c2c1 [CP-724714] | > 10 µM

target: Tyrosine-protein kinase SYK (Homo sapiens, UniProt P43405)

Row | Structure (SMILES) | Kd
6 | COCC(=O)NC/C=C/c1ccc2ncnc(Nc3ccc(Oc4ccc(C)nc4)c(C)c3)c2c1 [CP-724714] | > 10 µM
7 | NC(=O)c1ccc(-c2nc(-c3ccc4c(c3)OCO4)c(-c3ccccn3)[nH]2)cc1 [SB-431542] | > 10 µM

target: Citron Rho-interacting kinase (Homo sapiens, UniProt O14578)
Sequence (O14578 whole entry): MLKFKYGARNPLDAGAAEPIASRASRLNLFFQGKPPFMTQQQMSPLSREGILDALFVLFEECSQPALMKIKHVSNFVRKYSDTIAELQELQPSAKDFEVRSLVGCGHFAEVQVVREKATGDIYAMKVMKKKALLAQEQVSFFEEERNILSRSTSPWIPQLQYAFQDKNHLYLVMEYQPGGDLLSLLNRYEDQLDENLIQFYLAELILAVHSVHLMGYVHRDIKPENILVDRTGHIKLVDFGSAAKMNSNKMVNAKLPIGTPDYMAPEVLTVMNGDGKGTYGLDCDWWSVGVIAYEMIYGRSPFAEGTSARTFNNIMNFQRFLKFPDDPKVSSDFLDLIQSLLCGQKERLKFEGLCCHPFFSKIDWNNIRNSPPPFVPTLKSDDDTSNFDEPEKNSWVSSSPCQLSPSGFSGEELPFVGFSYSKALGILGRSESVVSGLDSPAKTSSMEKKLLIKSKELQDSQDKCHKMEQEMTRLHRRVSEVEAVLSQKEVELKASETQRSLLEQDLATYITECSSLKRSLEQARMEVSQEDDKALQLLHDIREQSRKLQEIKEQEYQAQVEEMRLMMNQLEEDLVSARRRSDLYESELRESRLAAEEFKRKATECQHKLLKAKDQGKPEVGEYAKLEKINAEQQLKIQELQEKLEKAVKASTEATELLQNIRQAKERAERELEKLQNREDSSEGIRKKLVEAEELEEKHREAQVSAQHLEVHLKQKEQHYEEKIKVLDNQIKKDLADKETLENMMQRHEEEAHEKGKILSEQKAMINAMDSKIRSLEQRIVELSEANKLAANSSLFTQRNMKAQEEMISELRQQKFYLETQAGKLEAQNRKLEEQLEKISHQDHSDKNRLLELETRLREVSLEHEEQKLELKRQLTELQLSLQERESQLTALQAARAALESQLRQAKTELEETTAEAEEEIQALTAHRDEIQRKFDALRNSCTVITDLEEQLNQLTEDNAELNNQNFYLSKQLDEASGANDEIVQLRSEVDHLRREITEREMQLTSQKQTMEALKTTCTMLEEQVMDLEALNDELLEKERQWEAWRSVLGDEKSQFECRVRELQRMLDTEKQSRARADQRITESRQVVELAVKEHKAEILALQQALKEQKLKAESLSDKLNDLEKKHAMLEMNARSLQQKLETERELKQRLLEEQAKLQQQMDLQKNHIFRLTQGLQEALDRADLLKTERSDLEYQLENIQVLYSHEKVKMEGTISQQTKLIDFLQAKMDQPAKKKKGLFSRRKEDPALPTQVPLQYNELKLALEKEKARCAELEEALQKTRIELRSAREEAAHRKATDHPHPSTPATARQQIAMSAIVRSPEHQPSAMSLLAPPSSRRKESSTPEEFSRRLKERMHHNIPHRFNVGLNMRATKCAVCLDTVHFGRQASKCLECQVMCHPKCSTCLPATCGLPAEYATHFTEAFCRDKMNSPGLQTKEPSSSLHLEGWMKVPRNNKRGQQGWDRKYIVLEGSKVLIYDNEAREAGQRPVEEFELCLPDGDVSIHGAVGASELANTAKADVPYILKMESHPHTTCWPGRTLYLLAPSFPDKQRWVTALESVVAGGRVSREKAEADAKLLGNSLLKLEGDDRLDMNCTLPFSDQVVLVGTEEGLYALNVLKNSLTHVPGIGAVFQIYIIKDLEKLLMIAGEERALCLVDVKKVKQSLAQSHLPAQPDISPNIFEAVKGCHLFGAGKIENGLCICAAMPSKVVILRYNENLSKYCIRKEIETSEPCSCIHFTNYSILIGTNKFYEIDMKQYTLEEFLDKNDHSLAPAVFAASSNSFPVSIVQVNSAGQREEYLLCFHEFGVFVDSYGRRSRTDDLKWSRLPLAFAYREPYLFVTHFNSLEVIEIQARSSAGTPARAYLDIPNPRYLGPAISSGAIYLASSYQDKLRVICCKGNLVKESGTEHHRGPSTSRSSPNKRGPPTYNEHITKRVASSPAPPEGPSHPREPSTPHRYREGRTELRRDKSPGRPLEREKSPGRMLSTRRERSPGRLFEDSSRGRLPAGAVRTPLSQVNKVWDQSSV

Row | Structure (SMILES) | Kd
8 | Nc1nc(Nc2ccc(S(N)(=O)=O)cc2)nn1C(=O)c1c(F)cccc1F [JNJ-7706621] | > 10 µM
9 | COCC(=O)NC/C=C/c1ccc2ncnc(Nc3ccc(Oc4ccc(C)nc4)c(C)c3)c2c1 [CP-724714] | > 10 µM
10 | NC(=O)c1ccc(-c2nc(-c3ccc4c(c3)OCO4)c(-c3ccccn3)[nH]2)cc1 [SB-431542] | > 10 µM

target: Tyrosine-protein kinase Lck (Homo sapiens, UniProt P06239)

Row | Structure (SMILES) | Kd
11 | COCC(=O)NC/C=C/c1ccc2ncnc(Nc3ccc(Oc4ccc(C)nc4)c(C)c3)c2c1 [CP-724714] | > 10 µM
12 | NC(=O)c1ccc(-c2nc(-c3ccc4c(c3)OCO4)c(-c3ccccn3)[nH]2)cc1 [SB-431542] | > 10 µM

target: Receptor tyrosine-protein kinase erbB-2 (Homo sapiens, UniProt P04626)

Row | Structure (SMILES) | Kd
13 | Nc1nc(Nc2ccc(S(N)(=O)=O)cc2)nn1C(=O)c1c(F)cccc1F [JNJ-7706621] | > 10 µM
14 | NC(=O)c1ccc(-c2nc(-c3ccc4c(c3)OCO4)c(-c3ccccn3)[nH]2)cc1 [SB-431542] | > 10 µM

target: SRSF protein kinase 2 (Homo sapiens, UniProt P78362)

Row | Structure (SMILES) | Kd
15 | Nc1nc(Nc2ccc(S(N)(=O)=O)cc2)nn1C(=O)c1c(F)cccc1F [JNJ-7706621] | > 10 µM
16 | COCC(=O)NC/C=C/c1ccc2ncnc(Nc3ccc(Oc4ccc(C)nc4)c(C)c3)c2c1 [CP-724714] | > 10 µM
17 | NC(=O)c1ccc(-c2nc(-c3ccc4c(c3)OCO4)c(-c3ccccn3)[nH]2)cc1 [SB-431542] | > 10 µM

target: Calcium/calmodulin-dependent protein kinase type II subunit beta (Homo sapiens, UniProt Q13554)

Row | Structure (SMILES) | Kd
18 | Nc1nc(Nc2ccc(S(N)(=O)=O)cc2)nn1C(=O)c1c(F)cccc1F [JNJ-7706621] | > 10 µM
19 | COCC(=O)NC/C=C/c1ccc2ncnc(Nc3ccc(Oc4ccc(C)nc4)c(C)c3)c2c1 [CP-724714] | > 10 µM
20 | NC(=O)c1ccc(-c2nc(-c3ccc4c(c3)OCO4)c(-c3ccccn3)[nH]2)cc1 [SB-431542] | > 10 µM

target: T1, cGMP-dependent protein kinase 1 (Homo sapiens, UniProt Q13976)
T1 sequence (Q13976 whole entry): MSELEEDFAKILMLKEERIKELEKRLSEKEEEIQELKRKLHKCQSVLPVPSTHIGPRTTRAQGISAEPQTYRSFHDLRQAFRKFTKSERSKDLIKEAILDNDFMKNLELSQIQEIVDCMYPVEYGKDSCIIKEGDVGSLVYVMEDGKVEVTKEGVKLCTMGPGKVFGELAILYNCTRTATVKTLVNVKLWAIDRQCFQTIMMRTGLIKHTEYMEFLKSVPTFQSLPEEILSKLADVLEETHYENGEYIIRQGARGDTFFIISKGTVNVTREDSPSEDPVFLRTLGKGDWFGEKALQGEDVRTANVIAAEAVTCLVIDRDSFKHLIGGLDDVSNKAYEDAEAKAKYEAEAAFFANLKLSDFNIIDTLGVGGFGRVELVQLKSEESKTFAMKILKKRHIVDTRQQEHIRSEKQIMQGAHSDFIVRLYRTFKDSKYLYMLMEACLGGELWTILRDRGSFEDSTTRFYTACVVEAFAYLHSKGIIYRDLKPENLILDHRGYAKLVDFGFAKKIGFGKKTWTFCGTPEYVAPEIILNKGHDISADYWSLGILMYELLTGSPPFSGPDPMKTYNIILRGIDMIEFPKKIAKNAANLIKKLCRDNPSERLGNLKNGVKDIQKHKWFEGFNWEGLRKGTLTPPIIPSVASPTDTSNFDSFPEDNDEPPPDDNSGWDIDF

Row | Structure (SMILES) | Kd
21 | Nc1nc(Nc2ccc(S(N)(=O)=O)cc2)nn1C(=O)c1c(F)cccc1F [JNJ-7706621] | > 10 µM
22 | COCC(=O)NC/C=C/c1ccc2ncnc(Nc3ccc(Oc4ccc(C)nc4)c(C)c3)c2c1 [CP-724714] | > 10 µM
23 | NC(=O)c1ccc(-c2nc(-c3ccc4c(c3)OCO4)c(-c3ccccn3)[nH]2)cc1 [SB-431542] | > 10 µM

target: Wee1-like protein kinase (Homo sapiens, UniProt P30291)
Sequence (P30291 whole entry): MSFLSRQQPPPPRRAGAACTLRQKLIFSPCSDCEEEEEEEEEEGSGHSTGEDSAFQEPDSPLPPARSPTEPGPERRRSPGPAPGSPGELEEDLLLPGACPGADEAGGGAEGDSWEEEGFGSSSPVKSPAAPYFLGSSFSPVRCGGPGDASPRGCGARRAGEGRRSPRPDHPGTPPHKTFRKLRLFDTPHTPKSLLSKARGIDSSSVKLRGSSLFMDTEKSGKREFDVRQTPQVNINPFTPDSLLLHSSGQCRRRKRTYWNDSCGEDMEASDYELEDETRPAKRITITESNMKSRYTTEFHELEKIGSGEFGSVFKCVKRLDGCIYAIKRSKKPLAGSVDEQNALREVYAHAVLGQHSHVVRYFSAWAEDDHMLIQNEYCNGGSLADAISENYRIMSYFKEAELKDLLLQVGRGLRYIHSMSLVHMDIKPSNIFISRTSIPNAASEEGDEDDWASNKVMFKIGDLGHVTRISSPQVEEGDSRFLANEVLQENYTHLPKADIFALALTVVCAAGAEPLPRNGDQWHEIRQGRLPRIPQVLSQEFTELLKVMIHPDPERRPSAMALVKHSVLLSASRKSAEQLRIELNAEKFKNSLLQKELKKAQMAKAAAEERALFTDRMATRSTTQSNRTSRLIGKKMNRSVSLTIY

Row | Structure (SMILES) | Kd
24 | Nc1nc(Nc2ccc(S(N)(=O)=O)cc2)nn1C(=O)c1c(F)cccc1F [JNJ-7706621] | > 10 µM
25 | COCC(=O)NC/C=C/c1ccc2ncnc(Nc3ccc(Oc4ccc(C)nc4)c(C)c3)c2c1 [CP-724714] | > 10 µM
26 | NC(=O)c1ccc(-c2nc(-c3ccc4c(c3)OCO4)c(-c3ccccn3)[nH]2)cc1 [SB-431542] | > 10 µM

target: Cyclin-dependent kinase 19 (Homo sapiens, UniProt Q9BWU1)

Row | Structure (SMILES) | Kd
27 | Nc1nc(Nc2ccc(S(N)(=O)=O)cc2)nn1C(=O)c1c(F)cccc1F [JNJ-7706621] | > 10 µM
28 | NC(=O)c1ccc(-c2nc(-c3ccc4c(c3)OCO4)c(-c3ccccn3)[nH]2)cc1 [SB-431542] | > 10 µM

target: Receptor-interacting serine/threonine-protein kinase 2 (Homo sapiens, UniProt O43353)
Sequence (O43353 whole entry): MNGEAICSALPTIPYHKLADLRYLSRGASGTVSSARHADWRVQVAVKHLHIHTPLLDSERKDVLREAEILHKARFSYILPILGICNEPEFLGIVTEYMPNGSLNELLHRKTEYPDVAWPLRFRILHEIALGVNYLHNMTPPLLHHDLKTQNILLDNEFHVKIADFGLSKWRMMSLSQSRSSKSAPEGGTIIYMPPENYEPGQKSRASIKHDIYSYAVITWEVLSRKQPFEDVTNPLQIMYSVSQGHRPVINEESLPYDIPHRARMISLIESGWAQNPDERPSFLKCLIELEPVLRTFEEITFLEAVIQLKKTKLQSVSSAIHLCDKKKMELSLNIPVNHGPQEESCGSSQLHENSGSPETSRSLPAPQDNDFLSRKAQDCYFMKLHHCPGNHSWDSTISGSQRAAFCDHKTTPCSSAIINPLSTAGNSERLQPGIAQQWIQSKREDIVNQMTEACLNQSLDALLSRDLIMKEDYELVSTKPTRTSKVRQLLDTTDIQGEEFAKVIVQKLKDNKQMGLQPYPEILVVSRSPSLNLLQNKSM

Row | Structure (SMILES) | Kd
29 | Nc1nc(Nc2ccc(S(N)(=O)=O)cc2)nn1C(=O)c1c(F)cccc1F [JNJ-7706621] | > 10 µM
30 | COCC(=O)NC/C=C/c1ccc2ncnc(Nc3ccc(Oc4ccc(C)nc4)c(C)c3)c2c1 [CP-724714] | > 10 µM
31 | NC(=O)c1ccc(-c2nc(-c3ccc4c(c3)OCO4)c(-c3ccccn3)[nH]2)cc1 [SB-431542] | 3.4 µM

target: Mitogen-activated protein kinase kinase kinase 20 (Homo sapiens, UniProt Q9NYL2)
Sequence (Q9NYL2 whole entry): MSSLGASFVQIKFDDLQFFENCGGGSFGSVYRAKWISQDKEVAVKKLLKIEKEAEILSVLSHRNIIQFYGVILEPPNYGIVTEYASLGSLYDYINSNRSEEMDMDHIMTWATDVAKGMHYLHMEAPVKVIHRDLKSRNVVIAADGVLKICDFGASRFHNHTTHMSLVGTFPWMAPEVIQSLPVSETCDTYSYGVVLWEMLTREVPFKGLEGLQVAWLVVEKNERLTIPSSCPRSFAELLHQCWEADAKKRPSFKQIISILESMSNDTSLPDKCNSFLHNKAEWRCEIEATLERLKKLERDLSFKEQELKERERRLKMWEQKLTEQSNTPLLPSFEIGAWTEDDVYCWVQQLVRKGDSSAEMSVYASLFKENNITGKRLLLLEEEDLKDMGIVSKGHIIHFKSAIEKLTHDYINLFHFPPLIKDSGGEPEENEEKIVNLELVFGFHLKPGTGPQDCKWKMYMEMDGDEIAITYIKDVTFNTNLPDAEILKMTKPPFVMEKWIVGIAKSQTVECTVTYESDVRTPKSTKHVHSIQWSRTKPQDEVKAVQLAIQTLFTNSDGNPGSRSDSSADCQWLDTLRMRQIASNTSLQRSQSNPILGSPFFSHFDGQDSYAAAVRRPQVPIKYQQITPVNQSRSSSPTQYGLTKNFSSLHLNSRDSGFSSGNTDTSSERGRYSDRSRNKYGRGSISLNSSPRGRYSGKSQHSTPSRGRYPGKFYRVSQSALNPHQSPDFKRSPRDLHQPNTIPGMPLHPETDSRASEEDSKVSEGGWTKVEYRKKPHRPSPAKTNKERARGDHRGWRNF

Row | Structure (SMILES) | Kd
32 | Nc1nc(Nc2ccc(S(N)(=O)=O)cc2)nn1C(=O)c1c(F)cccc1F [JNJ-7706621] | > 10 µM
33 | COCC(=O)NC/C=C/c1ccc2ncnc(Nc3ccc(Oc4ccc(C)nc4)c(C)c3)c2c1 [CP-724714] | > 10 µM
34 | NC(=O)c1ccc(-c2nc(-c3ccc4c(c3)OCO4)c(-c3ccccn3)[nH]2)cc1 [SB-431542] | > 10 µM

target: Serine/threonine-protein kinase MRCK alpha (Homo sapiens, UniProt Q5VT25)

Row | Structure (SMILES) | Kd
35 | Nc1nc(Nc2ccc(S(N)(=O)=O)cc2)nn1C(=O)c1c(F)cccc1F [JNJ-7706621] | > 10 µM
36 | COCC(=O)NC/C=C/c1ccc2ncnc(Nc3ccc(Oc4ccc(C)nc4)c(C)c3)c2c1 [CP-724714] | > 10 µM
37 | NC(=O)c1ccc(-c2nc(-c3ccc4c(c3)OCO4)c(-c3ccccn3)[nH]2)cc1 [SB-431542] | > 10 µM

target: Tyrosine-protein kinase Blk (Homo sapiens, UniProt P51451)
Sequence (P51451 whole entry): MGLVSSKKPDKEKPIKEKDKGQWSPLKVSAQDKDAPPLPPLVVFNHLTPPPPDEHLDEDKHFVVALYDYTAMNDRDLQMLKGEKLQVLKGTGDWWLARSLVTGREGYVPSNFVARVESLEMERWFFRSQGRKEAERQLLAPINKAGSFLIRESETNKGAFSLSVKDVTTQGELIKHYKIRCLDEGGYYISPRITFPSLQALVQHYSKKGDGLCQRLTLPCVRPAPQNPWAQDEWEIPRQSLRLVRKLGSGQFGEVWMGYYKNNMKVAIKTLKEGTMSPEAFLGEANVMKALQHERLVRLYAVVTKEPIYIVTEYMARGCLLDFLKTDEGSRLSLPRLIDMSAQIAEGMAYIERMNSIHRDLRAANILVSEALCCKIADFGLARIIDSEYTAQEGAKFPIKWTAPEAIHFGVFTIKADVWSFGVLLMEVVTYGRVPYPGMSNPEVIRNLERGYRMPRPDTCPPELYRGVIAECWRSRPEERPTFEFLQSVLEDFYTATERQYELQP

Row | Structure (SMILES) | Kd
38 | Nc1nc(Nc2ccc(S(N)(=O)=O)cc2)nn1C(=O)c1c(F)cccc1F [JNJ-7706621] | > 10 µM
39 | COCC(=O)NC/C=C/c1ccc2ncnc(Nc3ccc(Oc4ccc(C)nc4)c(C)c3)c2c1 [CP-724714] | > 10 µM
40 | NC(=O)c1ccc(-c2nc(-c3ccc4c(c3)OCO4)c(-c3ccccn3)[nH]2)cc1 [SB-431542] | > 10 µM

target: Mitogen-activated protein kinase 11 (Homo sapiens, UniProt Q15759)
Sequence (Q15759 whole entry): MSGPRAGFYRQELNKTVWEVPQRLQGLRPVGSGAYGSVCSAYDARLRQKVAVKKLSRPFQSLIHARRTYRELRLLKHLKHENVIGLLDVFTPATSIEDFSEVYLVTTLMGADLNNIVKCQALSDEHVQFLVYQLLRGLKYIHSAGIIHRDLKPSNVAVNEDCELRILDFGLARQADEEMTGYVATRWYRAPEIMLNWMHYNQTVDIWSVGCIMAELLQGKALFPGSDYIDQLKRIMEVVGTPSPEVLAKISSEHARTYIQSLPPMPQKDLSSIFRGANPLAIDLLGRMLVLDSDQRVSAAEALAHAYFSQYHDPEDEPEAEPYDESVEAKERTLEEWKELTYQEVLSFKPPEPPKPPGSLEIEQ

Row | Structure (SMILES) | Kd
41 | Nc1nc(Nc2ccc(S(N)(=O)=O)cc2)nn1C(=O)c1c(F)cccc1F [JNJ-7706621] | > 10 µM
42 | COCC(=O)NC/C=C/c1ccc2ncnc(Nc3ccc(Oc4ccc(C)nc4)c(C)c3)c2c1 [CP-724714] | > 10 µM
43 | NC(=O)c1ccc(-c2nc(-c3ccc4c(c3)OCO4)c(-c3ccccn3)[nH]2)cc1 [SB-431542] | > 10 µM

target: T2, Serine/threonine-protein kinase DCLK1 (Homo sapiens, UniProt O15075)
T2 sequence (O15075 whole entry): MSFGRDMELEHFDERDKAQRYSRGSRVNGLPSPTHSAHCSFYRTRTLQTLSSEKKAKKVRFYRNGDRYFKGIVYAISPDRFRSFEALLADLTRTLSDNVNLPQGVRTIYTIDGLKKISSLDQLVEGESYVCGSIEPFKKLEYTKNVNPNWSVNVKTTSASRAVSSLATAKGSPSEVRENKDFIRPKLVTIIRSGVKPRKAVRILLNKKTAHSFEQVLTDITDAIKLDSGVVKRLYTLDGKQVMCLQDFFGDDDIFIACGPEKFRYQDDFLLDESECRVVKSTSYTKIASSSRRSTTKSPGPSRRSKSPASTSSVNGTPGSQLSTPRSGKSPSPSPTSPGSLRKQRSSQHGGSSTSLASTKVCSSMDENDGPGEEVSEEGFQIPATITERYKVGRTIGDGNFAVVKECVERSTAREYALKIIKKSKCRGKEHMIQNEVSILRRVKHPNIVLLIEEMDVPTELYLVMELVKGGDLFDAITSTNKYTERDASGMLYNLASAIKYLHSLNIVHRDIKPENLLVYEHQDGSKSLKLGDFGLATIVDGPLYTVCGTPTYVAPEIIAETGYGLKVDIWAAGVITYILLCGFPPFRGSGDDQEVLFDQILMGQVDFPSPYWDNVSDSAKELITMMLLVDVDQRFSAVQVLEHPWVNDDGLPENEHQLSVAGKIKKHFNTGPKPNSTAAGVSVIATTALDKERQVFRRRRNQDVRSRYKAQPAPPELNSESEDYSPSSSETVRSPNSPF

Row | Structure (SMILES) | Kd
44 | COCC(=O)NC/C=C/c1ccc2ncnc(Nc3ccc(Oc4ccc(C)nc4)c(C)c3)c2c1 [CP-724714] | > 10 µM
45 | NC(=O)c1ccc(-c2nc(-c3ccc4c(c3)OCO4)c(-c3ccccn3)[nH]2)cc1 [SB-431542] | > 10 µM

target: Tyrosine-protein kinase HCK (Homo sapiens, UniProt P08631)

Row | Structure (SMILES) | Kd
46 | COCC(=O)NC/C=C/c1ccc2ncnc(Nc3ccc(Oc4ccc(C)nc4)c(C)c3)c2c1 [CP-724714] | > 10 µM
47 | NC(=O)c1ccc(-c2nc(-c3ccc4c(c3)OCO4)c(-c3ccccn3)[nH]2)cc1 [SB-431542] | > 10 µM

target: Serine/threonine-protein kinase B-raf (Homo sapiens, UniProt P15056, V600E)

Row | Structure (SMILES) | Kd
48 | Nc1nc(Nc2ccc(S(N)(=O)=O)cc2)nn1C(=O)c1c(F)cccc1F [JNJ-7706621] | > 10 µM

target: Mitogen-activated protein kinase 9 (Homo sapiens, UniProt P45984)

Row | Structure (SMILES) | Kd
49 | COCC(=O)NC/C=C/c1ccc2ncnc(Nc3ccc(Oc4ccc(C)nc4)c(C)c3)c2c1 [CP-724714] | > 10 µM
50 | NC(=O)c1ccc(-c2nc(-c3ccc4c(c3)OCO4)c(-c3ccccn3)[nH]2)cc1 [SB-431542] | > 10 µM

Source: ChEMBL document CHEMBL1150977, “A quantitative analysis of kinase inhibitor selectivity” (Nat Biotechnol, 2008)
